One data set concerns SHEE cells. Description: MTT assay, normal esophageal epithelial cell line SHEE. Type of data set: cell-based. To be noted: Homo sapiens, 48 h, n = 5. An excerpt: (§1) The human cancer cells (H1650, H1975, KYSE70, KYSE410 and KYSE450) were purchased from the Type Culture Collection of the Chinese Academy of Sciences (Shanghai, China). The human immortalized normal esophageal epithelial cell line SHEE was donated by Dr. Enmin Li from the Laboratory of Tumor Pathology (Shantou University Medical College, Shantou, Guangdong, China). Drug-resistant cells (H1650TR, H1975OR, KYSE70TR, KYSE410TR and KYSE450TR) were induced by China-US (Henan) Hormel Cancer Institute. The cellswere cultured in RPMI-1640 complete growth medium containing 100 U/mL penicillin-streptomycin and 10% FBS. Based on the above medium formula, 100 nm/L paclitaxel was added in taxol-resistant cells, 100 nm/L gefitinib was added in gefitinib-resistant cells. The cells were incubated at 37 °C in an atmosphere containing 5% of CO2. The compounds were dissolved in DMSO to make a 50 mM stock solution and were diluted to the concentration of working solutions with complete growth medium before administration.
(§2) Cells were seeded in 96-well plates with 2,200–2,500 cells/well in100 μL. One day after seeding, test compounds with the concentration between 0 and 50 μM were added with 0.1% DMSO as control. Five multiple wells for each concentration. After 48 h, MTT was added and incubated in the plate for 1–4 h in the incubator. The absorbance at 490 nm was measured using a microplate reader (Thermo).
(Tetrazolium dyes change colour on reduction, which living cells bring about.)

The test system of another data set is KYSE410 cells. Description: MTT assay, KYSE410. It is filed as cell-based, human. To be noted: Homo sapiens, KYSE-410; MTT, 48 h, KYSE410, n = 5; read-out: IC50 48 h KYSE410.
Source text: as §1, §2

For a further data set, the system named is KYSE70 cells. Description: MTT assay, KYSE70. It is filed as cell-based, human. To be noted: Homo sapiens, KYSE-70; MTT, 48 h, KYSE70, n = 5.
Source text: as §1, §2

For a further data set, the system named is H1975 cells. Description: MTT assay for cell proliferation and cytotoxicity, H1975. It is filed as cell-based, human. To be noted: Homo sapiens, NCI-H1975, 48 h, MTT, 48 h, H1975, n = 5; read-out: IC50 48 h H1975.
Source text: as §1
Cells were seeded in 96-well plates with 2,200–2,500 cells/well in100 μL. One day after seeding, test compounds with the concentration between 0 and 50 μM were added with 0.1% DMSO as control. Five multiple wells for each concentration. […] The absorbance at 490 nm was measured using a microplate reader (Thermo).

In the next data set the test system is KYSE450 cells. Description: MTT assay, KYSE450. It is filed as cell-based, human. To be noted: Homo sapiens, KYSE-450; MTT, 48 h, KYSE450, n = 5; read-out: IC50 48 h KYSE450.
Source text: as §1, §2

The test system of the next data set is H1650 cells. Description: MTT assay for cell proliferation and cytotoxicity, H1650. To be noted: Homo sapiens, NCI-H1650, 48 h, H1650, n = 5. Type of data set: cell-based.
Source text: as §1, §2

IC50 and melting point data for five molecules are collected here from paper PMC9709406 (Frontiers in Pharmacology, 2022).

For orientation: IC50 means the midpoint of a concentration-inhibition curve. As a reminder, the melting point is the temperature of the solid-liquid transition. The molecule `Brc1cc(Br)cc(Cn2cc(-c3cccc(Nc4ncnc5cc6c(cc45)OCCOCCOCCO6)c3)nn2)c1` [compound 3u] displayed a melting point of 151 to 154 °C. Further, in the data set on SHEE cells, the IC50 was above 50 µM. For the same molecule, in the data set with KYSE410 cells, the IC50 is above 50 µM. In addition, in the data set with KYSE70 cells, the IC50 is above 50 µM. In the data set on H1975 cells, the half-maximal inhibitory concentration (IC50) was above 50 µM. For the same molecule, the IC50 in the data set with KYSE450 cells is above 50 µM. Also, the IC50 in the data set with H1650 cells is above 50 µM.

Regarding `Brc1ccccc1-n1cc(-c2cccc(Nc3ncnc4cc5c(cc34)OCCOCCOCCO5)c2)nn1` [compound 3k], the melting point lay in the range of 129 to 132 °C. For the same molecule, in the data set on SHEE cells, the concentration for half-maximal inhibition (IC50) was determined as 12.5 ± 1.03 µM. Moreover, the IC50 with KYSE410 cells is 21.9 ± 1.39 µM. In the data set on KYSE70 cells, this molecule displayed an IC50 of 5.05 ± 0.34 µM. Further, the concentration for half-maximal inhibition (IC50) in the data set with H1975 cells was determined as 27.2 ± 1.67 µM. The IC50 in the data set on KYSE450 cells was 6.25 ± 0.57 µM. In the data set with H1650 cells, this molecule showed a concentration for half-maximal inhibition (IC50) of 17.7 ± 1.21 µM.

`Fc1ccc(-n2cc(-c3cccc(Nc4ncnc5cc6c(cc45)OCCOCCOCCO6)c3)nn2)cc1` [compound 3c] had a melting point of 129 to 132 °C. This molecule also had a half-maximal inhibitory concentration (IC50) in the data set with SHEE cells of 6.23 ± 0.37 µM. In addition, the IC50 in the data set on KYSE410 cells was above 50 µM. In the data set with KYSE70 cells, the IC50 is 5.84 ± 0.36 µM. Moreover, the concentration for half-maximal inhibition (IC50) in the data set with H1975 cells is above 50 µM. Also, the IC50 in the data set with KYSE450 cells was determined as 13.8 ± 1.13 µM. Moreover, in the data set with H1650 cells, the concentration for half-maximal inhibition (IC50) was found to be 9.4 ± 0.73 µM.

`Clc1cccc(-n2cc(-c3cccc(Nc4ncnc5cc6c(cc45)OCCOCCOCCO6)c3)nn2)c1` [compound 3g]: the IC50 in the data set on SHEE cells was found to be 8.01 ± 0.77 µM; in the data set on KYSE410 cells it was 10.9 ± 0.99 µM; in the data set on KYSE70 cells, 6.13 ± 0.31 µM; in the data set with H1975 cells, 4.75 ± 0.33 µM; in the data set on KYSE450 cells, 4.51 ± 0.29 µM; with H1650 cells it was 8.72 ± 0.73 µM.

Turning to `Fc1ccccc1Cn1cc(-c2cccc(Nc3ncnc4cc5c(cc34)OCCOCCOCCO5)c2)nn1` [compound 3m], the melting point was in the range of 118 to 121 °C. In the data set with SHEE cells, this molecule displayed an IC50 above 50 µM. Further, the IC50 in the data set on KYSE410 cells is above 50 µM. The same molecule showed a half-maximal inhibitory concentration (IC50) with KYSE70 cells above 50 µM. The IC50 in the data set on H1975 cells turned out to be 47.3 ± 2.01 µM. Also, the half-maximal inhibitory concentration (IC50) with KYSE450 cells was above 50 µM. Also, the half-maximal inhibitory concentration (IC50) with H1650 cells was above 50 µM.
